{
  "source": "patent US20190263796A1",
  "about": "“LIM KINASE INHIBITORS, PHARMACEUTICAL COMPOSITION AND METHOD OF USE IN LIMK-MEDIATED DISEASES” (CELLIPSE, priority 2016, published 2019)",
  "type_in_all_cases": "biochemical",
  "conditions_in_all_cases": "residual activity, 5 μM inhibitor, Km ATP",
  "key": {"CaMKIIδ(h)": {"molecular_target": "T1, CaMKIIδ(h) (Homo sapiens, UniProt Q13557)", "T1 construct": "purchased Merck-Millipore (KinaseProfiler panel service)", "T1 sequence (Q13557 whole entry)": "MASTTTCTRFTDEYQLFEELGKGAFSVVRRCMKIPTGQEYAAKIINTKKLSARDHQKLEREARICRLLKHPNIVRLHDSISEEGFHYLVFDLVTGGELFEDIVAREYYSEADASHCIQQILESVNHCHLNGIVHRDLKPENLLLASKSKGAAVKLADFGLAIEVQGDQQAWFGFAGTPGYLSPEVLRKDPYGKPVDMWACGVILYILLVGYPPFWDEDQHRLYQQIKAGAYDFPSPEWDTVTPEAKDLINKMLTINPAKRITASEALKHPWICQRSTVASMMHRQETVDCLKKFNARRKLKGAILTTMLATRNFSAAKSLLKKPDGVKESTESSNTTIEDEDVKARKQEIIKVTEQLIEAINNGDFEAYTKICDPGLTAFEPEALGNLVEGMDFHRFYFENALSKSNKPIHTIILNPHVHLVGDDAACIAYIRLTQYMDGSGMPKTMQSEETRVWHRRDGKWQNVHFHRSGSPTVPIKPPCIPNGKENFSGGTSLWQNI", "assay": "KinaseProfiler panel: CaMKIIδ(h)", "procedure": "(§1) Kinase selectivity was performed on a panel of 58 recombinant protein kinases. The assays were performed in the presence of 5 μM inhibitor at the respective Km ATP for each kinase, using the KinaseProfiler panel service (Merck-Millipore). Residual activity measured in the presence of […] inhibitor is expressed as the percent of activity determined in the absence of inhibitor."}, "LIMK1(h)": {"molecular_target": "LIMK1(h) (Homo sapiens, UniProt P53667)", "assay": "KinaseProfiler panel: LIMK1(h)", "design": "purchased Merck-Millipore (KinaseProfiler panel service)", "procedure": "as §1"}, "MRCKα(h)": {"molecular_target": "T2, MRCKα(h) (Homo sapiens, UniProt Q5VT25)", "T2 construct": "purchased Merck-Millipore (KinaseProfiler panel service)", "T2 sequence (Q5VT25 whole entry)": "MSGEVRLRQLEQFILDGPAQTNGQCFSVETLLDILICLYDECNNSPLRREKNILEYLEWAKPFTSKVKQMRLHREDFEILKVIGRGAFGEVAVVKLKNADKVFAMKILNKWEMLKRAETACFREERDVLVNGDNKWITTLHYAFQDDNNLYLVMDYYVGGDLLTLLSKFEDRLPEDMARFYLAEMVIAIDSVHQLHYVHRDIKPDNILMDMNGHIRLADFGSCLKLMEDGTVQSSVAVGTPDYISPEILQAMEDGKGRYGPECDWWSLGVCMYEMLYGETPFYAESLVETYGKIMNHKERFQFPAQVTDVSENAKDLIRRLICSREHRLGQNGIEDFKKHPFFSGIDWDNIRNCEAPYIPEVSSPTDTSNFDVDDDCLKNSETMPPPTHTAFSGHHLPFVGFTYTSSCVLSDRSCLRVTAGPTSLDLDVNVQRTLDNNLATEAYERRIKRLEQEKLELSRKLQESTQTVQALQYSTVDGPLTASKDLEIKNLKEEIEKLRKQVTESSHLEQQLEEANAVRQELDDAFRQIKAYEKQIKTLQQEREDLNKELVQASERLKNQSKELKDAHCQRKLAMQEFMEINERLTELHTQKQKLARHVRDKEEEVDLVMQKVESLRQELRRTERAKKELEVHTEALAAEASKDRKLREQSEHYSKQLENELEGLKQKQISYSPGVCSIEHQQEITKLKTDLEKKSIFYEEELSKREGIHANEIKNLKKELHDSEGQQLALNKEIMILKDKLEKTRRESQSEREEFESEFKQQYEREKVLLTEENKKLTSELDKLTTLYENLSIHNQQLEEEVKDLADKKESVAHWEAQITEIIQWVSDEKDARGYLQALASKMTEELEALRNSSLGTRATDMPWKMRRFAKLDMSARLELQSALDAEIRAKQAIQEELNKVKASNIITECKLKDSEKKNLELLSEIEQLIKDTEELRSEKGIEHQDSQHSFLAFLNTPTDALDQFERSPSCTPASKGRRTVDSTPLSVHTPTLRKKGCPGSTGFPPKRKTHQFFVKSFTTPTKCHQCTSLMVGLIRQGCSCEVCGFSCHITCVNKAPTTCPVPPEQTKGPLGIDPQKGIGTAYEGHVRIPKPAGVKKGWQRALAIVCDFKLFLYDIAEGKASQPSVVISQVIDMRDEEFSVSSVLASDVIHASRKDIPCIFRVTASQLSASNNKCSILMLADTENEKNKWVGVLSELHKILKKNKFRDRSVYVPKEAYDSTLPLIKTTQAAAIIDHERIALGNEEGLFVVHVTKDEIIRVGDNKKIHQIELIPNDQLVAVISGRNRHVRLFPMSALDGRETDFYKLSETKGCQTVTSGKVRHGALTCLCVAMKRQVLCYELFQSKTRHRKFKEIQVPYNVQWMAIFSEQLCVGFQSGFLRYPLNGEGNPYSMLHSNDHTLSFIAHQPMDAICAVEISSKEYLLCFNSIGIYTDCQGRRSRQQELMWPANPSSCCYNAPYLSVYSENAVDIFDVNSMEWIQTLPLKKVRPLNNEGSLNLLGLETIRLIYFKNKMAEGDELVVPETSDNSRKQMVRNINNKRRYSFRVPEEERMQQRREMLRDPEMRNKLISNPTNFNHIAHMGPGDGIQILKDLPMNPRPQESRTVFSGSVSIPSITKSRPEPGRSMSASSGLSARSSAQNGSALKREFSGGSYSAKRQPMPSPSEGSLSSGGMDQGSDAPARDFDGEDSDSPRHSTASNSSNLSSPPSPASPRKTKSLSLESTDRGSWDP", "assay": "KinaseProfiler panel: MRCKα(h)", "procedure": "as §1"}, "TrkA(h)": {"molecular_target": "T3, TrkA(h) (Homo sapiens, UniProt P04629)", "T3 construct": "purchased Merck-Millipore (KinaseProfiler panel service)", "assay": "KinaseProfiler panel: TrkA(h)", "procedure": "as §1"}, "A-Raf(h)": {"molecular_target": "T4, A-Raf(h) (Homo sapiens, UniProt P10398)", "T4 construct": "purchased Merck-Millipore (KinaseProfiler panel service)", "T4 sequence (P10398 whole entry)": "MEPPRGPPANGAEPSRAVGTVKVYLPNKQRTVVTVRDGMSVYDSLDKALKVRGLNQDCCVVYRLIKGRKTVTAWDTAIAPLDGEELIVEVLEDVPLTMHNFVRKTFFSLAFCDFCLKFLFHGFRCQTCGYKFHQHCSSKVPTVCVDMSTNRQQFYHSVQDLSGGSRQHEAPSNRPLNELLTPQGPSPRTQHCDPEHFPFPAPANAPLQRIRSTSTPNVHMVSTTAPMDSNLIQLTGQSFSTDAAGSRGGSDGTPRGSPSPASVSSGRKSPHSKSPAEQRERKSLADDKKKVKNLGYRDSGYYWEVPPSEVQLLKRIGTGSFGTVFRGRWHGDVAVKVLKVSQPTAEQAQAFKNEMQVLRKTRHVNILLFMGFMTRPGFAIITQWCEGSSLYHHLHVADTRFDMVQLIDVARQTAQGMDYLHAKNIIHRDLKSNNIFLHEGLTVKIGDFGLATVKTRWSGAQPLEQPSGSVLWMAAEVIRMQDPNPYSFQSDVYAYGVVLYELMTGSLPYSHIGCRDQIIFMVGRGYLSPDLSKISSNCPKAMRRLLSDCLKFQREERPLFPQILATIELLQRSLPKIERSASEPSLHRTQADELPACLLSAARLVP", "assay": "KinaseProfiler panel: A-Raf(h)", "procedure": "as §1"}, "ROCK-II(h)": {"molecular_target": "T5, ROCK-II(h) (Homo sapiens, UniProt O75116)", "T5 construct": "purchased Merck-Millipore (KinaseProfiler panel service)", "assay": "KinaseProfiler panel: ROCK-II(h)", "procedure": "as §1"}, "cKit(h)": {"molecular_target": "T6, cKit(h) (Homo sapiens, UniProt P10721)", "T6 construct": "purchased Merck-Millipore (KinaseProfiler panel service)", "T6 sequence (P10721 26-976)": "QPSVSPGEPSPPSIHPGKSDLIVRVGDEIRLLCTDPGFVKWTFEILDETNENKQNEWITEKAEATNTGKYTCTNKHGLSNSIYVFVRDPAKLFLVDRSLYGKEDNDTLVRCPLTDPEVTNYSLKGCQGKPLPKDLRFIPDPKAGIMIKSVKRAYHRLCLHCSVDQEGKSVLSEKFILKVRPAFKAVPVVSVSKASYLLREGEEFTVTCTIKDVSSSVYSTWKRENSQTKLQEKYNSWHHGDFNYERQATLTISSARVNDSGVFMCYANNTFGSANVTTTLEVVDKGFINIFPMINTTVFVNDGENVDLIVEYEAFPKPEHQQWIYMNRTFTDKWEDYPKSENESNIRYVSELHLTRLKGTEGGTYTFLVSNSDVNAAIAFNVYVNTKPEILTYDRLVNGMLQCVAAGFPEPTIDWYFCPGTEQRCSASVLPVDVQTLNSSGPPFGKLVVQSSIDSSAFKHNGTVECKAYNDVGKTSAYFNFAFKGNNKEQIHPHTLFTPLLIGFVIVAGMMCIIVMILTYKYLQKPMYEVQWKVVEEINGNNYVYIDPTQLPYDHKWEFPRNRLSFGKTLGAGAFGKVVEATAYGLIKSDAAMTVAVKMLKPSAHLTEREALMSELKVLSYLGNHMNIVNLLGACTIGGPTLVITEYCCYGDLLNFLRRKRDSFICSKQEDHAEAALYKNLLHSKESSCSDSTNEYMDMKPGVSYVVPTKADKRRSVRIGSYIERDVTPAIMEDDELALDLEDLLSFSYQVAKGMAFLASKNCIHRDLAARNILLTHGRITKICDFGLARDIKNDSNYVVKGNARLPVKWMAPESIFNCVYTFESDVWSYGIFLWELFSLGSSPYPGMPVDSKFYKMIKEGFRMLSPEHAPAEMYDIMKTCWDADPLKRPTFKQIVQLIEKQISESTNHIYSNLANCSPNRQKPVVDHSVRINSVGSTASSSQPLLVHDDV", "assay": "KinaseProfiler panel: cKit(h)", "procedure": "as §1"}, "Aurora-A(h)": {"molecular_target": "T7, Aurora-A(h) (Homo sapiens, UniProt O14965)", "T7 construct": "purchased Merck-Millipore (KinaseProfiler panel service)", "T7 sequence (O14965 whole entry)": "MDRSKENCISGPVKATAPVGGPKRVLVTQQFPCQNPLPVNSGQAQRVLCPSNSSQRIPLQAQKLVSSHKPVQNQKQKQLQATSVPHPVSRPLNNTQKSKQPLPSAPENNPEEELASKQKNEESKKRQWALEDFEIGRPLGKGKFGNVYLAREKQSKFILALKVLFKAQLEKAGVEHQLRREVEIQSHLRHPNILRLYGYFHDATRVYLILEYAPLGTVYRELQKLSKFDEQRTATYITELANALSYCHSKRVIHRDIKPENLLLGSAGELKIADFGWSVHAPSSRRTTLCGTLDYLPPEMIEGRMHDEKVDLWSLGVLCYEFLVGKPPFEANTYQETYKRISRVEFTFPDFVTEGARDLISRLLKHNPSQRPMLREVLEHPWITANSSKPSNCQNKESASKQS", "assay": "KinaseProfiler panel: Aurora-A(h)", "procedure": "as §1"}, "B-Raf(h)": {"molecular_target": "B-Raf(h) (Homo sapiens, UniProt P15056)", "sequence (P15056 whole entry)": "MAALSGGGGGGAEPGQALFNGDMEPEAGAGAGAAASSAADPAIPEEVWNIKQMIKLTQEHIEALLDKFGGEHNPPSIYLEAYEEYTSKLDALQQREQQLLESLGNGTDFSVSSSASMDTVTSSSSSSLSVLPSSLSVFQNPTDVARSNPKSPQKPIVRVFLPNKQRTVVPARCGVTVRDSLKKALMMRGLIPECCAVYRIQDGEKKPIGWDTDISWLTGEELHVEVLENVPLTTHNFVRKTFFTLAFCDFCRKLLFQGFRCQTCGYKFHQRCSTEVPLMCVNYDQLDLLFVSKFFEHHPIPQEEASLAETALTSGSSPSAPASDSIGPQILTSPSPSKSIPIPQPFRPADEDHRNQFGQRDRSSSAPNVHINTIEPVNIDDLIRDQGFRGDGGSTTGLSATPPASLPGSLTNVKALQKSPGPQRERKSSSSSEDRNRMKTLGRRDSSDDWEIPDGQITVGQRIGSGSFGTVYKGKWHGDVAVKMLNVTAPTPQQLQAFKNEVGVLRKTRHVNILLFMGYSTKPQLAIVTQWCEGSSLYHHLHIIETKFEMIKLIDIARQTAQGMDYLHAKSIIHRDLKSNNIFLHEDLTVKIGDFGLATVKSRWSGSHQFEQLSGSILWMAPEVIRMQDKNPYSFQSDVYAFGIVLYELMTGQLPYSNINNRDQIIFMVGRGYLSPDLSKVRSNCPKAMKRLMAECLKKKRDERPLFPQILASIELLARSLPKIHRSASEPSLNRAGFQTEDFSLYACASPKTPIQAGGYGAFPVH", "assay": "KinaseProfiler panel: B-Raf(h)", "design": "purchased Merck-Millipore (KinaseProfiler panel service)", "procedure": "as §1"}},
  "data": [
    {"smiles": "CC(C)(C)c1nc(-c2cccc(NS(=O)(=O)c3c(F)cccc3F)c2F)c(-c2ccnc(Nc3ccccc3)n2)s1", "note": "[Compound 1, N-(3-(2-(tert-butyl)-5-(2-(phenylamino)pyrimidin-4-yl)thiazol-4-yl)-2-fluorophenyl)-2,6-difluorobenzenesulfonamide]", "values": [
      {"measurement": "activity at 5 µM", "setting": "CaMKIIδ(h)", "value": "≥ 50", "unit": "%"},
      {"measurement": "activity at 5 µM", "setting": "LIMK1(h)", "value": "< 3", "unit": "%"},
      {"measurement": "activity at 5 µM", "setting": "MRCKα(h)", "value": "≥ 50", "unit": "%"},
      {"measurement": "activity at 5 µM", "setting": "TrkA(h)", "value": "10 to 50", "unit": "%"},
      {"measurement": "activity at 5 µM", "setting": "A-Raf(h)", "value": "≥ 50", "unit": "%"},
      {"measurement": "activity at 5 µM", "setting": "ROCK-II(h)", "value": "≥ 50", "unit": "%"},
      {"measurement": "activity at 5 µM", "setting": "cKit(h)", "value": "≥ 50", "unit": "%"},
      {"measurement": "activity at 5 µM", "setting": "Aurora-A(h)", "value": "≥ 50", "unit": "%"},
      {"measurement": "activity at 5 µM", "setting": "B-Raf(h)", "value": "3 to 10", "unit": "%"}
    ]}
  ]
}
